For twelve compounds, TGI and GI50 results are on record in PubChem BioAssay (NCI).

Among the test systems are BT-549 breast; EKVX NSCLC; HCC-2998 colon; HCT-116 colon; HCT-15 colon; K-562 leukemia; LOX IMVI melanoma; M14 melanoma; MCF7 breast; OVCAR-4 ovarian; UACC-62 melanoma.
What all share (experiment): NCI-60 cell line screen, 48 h

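These data come from cells grown in 96-well plates and exposed to compound for 48 hours at five concentrations. GI50 marks 50% less growth. TGI: concentration producing complete growth inhibition.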 Bounds are passed on as bounds.

For `Cc1cccc2sc(NC(=O)c3cc([N+](=O)[O-])ccc3Cl)nc12`, the TGI is 9.5 µM in the experiment on BT-549 breast; greater than 100 µM with EKVX NSCLC; 40.2 µM in the experiment on HCC-2998 colon; 12 µM with HCT-116 colon; greater than 29.1 µM with HCT-15 colon; greater than 100 µM with K-562 leukemia. Also, the TGI is 6.64 µM in the experiment with LOX IMVI melanoma; 5.32 µM in the experiment with M14 melanoma; greater than 100 µM with MCF7 breast; greater than 100 µM with OVCAR-4 ovarian; greater than 100 µM in the experiment with UACC-62 melanoma.
For the compound `O=C1CC(Br)c2c(Cl)sc(Cl)c21` (stereo unspecified), the TGI in the experiment on BT-549 breast was 61.4 µM; in the experiment on EKVX NSCLC, 48.2 µM; in the experiment on HCC-2998 colon, 24.4 µM; in the experiment on HCT-116 colon it was 16.9 µM; in the experiment with HCT-15 colon it was 28.1 µM; in the experiment on K-562 leukemia, 13.7 µM. Further, the TGI is 4.4 µM in the experiment on LOX IMVI melanoma, 26.5 µM with M14 melanoma, 13.8 µM in the experiment on MCF7 breast and 25.1 µM in the experiment on UACC-62 melanoma.
As for `COc1ccc(/C=C2\CN(C)CC3=C2OC(N)=C(C#N)C3c2ccc(OC)cc2)cc1` (stereo unspecified), the TGI was greater than 100 µM with BT-549 breast; greater than 100 µM with EKVX NSCLC; greater than 90.5 µM in the experiment on HCC-2998 colon; greater than 100 µM in the experiment on HCT-116 colon; greater than 100 µM with HCT-15 colon; greater than 100 µM in the experiment with K-562 leukemia. Also, the TGI in the experiment on LOX IMVI melanoma, with M14 melanoma, with MCF7 breast, with OVCAR-4 ovarian and with UACC-62 melanoma was greater than 100 µM in each case.
As for `COC(=O)C(NC(=O)CNC(=O)CSc1nnc(COc2ccc(Cl)cc2)n1-c1ccccc1)C(C)C` (stereo unspecified), the TGI with BT-549 breast is 34 µM; in the experiment with EKVX NSCLC, greater than 100 µM; in the experiment with HCC-2998 colon it was 34 µM; in the experiment on HCT-116 colon, 31.4 µM; in the experiment on HCT-15 colon, 48.9 µM; with K-562 leukemia, greater than 100 µM. For the same compound, the TGI stood at 50 µM with LOX IMVI melanoma; 38.5 µM in the experiment on M14 melanoma; 30.4 µM with MCF7 breast; 57.1 µM in the experiment on OVCAR-4 ovarian; 31.8 µM with UACC-62 melanoma.
For the compound `Clc1ccc(OCc2nnc3sc(-c4ccc(-c5ccc(Cl)cc5Cl)o4)nn23)c(Cl)c1`, the TGI came out at 50.6 µM in the experiment with BT-549 breast; 34.5 µM with EKVX NSCLC; 36.6 µM in the experiment with HCC-2998 colon; 31.4 µM in the experiment on HCT-116 colon; 49.9 µM with HCT-15 colon; 62.7 µM in the experiment on K-562 leukemia. For the same compound, the TGI in the experiment with LOX IMVI melanoma is 36.2 µM; in the experiment on M14 melanoma, 76.5 µM; with MCF7 breast, greater than 100 µM; in the experiment on OVCAR-4 ovarian, greater than 100 µM; in the experiment on UACC-62 melanoma, greater than 100 µM.
In the case of `OC1C(O)C(O)C(O)C(O)C1O` (stereo unspecified), the TGI in the experiment with BT-549 breast, in the experiment on HCC-2998 colon, in the experiment with HCT-116 colon, in the experiment with HCT-15 colon, with K-562 leukemia and with LOX IMVI melanoma was greater than 1000 µM each time. Besides, the TGI in the experiment on M14 melanoma, with MCF7 breast, in the experiment with OVCAR-4 ovarian and in the experiment with UACC-62 melanoma was greater than 1000 µM in each case.
For the compound `Cc1cc2c(cc1O)CC[C@@H]1[C@@H]2CC[C@]2(C)[C@@H](O)CC[C@@H]12`, the TGI stood at 20.1 µM in the experiment with BT-549 breast; 24.1 µM in the experiment with HCC-2998 colon; 13.4 µM in the experiment with HCT-116 colon; 16.4 µM in the experiment on HCT-15 colon; 13.2 µM in the experiment on K-562 leukemia; 27 µM with LOX IMVI melanoma. Also, the TGI in the experiment on M14 melanoma was determined as 21.4 µM; with MCF7 breast, 26.1 µM; with OVCAR-4 ovarian it was 29.2 µM; with UACC-62 melanoma, 21 µM. Moreover, the values for the GI50 with HCT-116 colon and in the experiment on UACC-62 melanoma were 3.63 µM and 5.39 µM, respectively.
`O=c1c2cc(Br)ccc2oc2nc3n(c(=O)c12)CCCS3`: the TGI with BT-549 breast, in the experiment with EKVX NSCLC, in the experiment with HCC-2998 colon, in the experiment on HCT-116 colon, in the experiment on HCT-15 colon and with K-562 leukemia was greater than 100 µM each time. For the same compound, the TGI in the experiment on LOX IMVI melanoma, in the experiment on M14 melanoma, in the experiment on MCF7 breast, with OVCAR-4 ovarian and in the experiment with UACC-62 melanoma was greater than 100 µM in each case.
Turning to `C=C1C(=O)OC2/C=C(\C)C(O)CC(O)C(C)(O)CC(OC(=O)/C(C)=C/C)C12` (stereo unspecified), the TGI in the experiment with BT-549 breast was 83.9 µM; in the experiment with EKVX NSCLC, greater than 100 µM; with HCC-2998 colon, greater than 100 µM; with HCT-116 colon, greater than 100 µM; with HCT-15 colon, greater than 100 µM; in the experiment on K-562 leukemia, greater than 100 µM. Also, the TGI with LOX IMVI melanoma, in the experiment with M14 melanoma, in the experiment with MCF7 breast, in the experiment with OVCAR-4 ovarian and in the experiment on UACC-62 melanoma was greater than 100 µM each time.
Consider `C=C1CC/C=C(/C(=O)O)CC[C@H]2[C@@H]1CC2(C)C`, for which the TGI in the experiment on BT-549 breast, with EKVX NSCLC, in the experiment on HCC-2998 colon, with HCT-116 colon, in the experiment with HCT-15 colon and in the experiment on K-562 leukemia was greater than 100 µM each time. In addition, the TGI in the experiment on LOX IMVI melanoma, in the experiment on M14 melanoma, in the experiment with MCF7 breast, in the experiment on OVCAR-4 ovarian and in the experiment on UACC-62 melanoma was greater than 100 µM in each case.
As to `CC(C)(C)NC(NC(C)(C)C)=C(C(Cl)=C(Cl)Cl)[N+](=O)[O-]`, the TGI in the experiment with BT-549 breast, in the experiment on EKVX NSCLC, in the experiment on HCC-2998 colon, in the experiment on HCT-116 colon, in the experiment with HCT-15 colon and in the experiment with K-562 leukemia was greater than 100 µM in each case. Moreover, the TGI in the experiment on LOX IMVI melanoma, with M14 melanoma, in the experiment with MCF7 breast, with OVCAR-4 ovarian and in the experiment on UACC-62 melanoma was greater than 100 µM in each case.
For the compound `CCCCCCCCCCCCCCCCCCNc1ccn(C2OC(COP(=O)(O)O)C(O)C2O)c(=O)n1` (stereo unspecified), the TGI with BT-549 breast, in the experiment on EKVX NSCLC, with HCC-2998 colon, in the experiment with HCT-116 colon, with HCT-15 colon and in the experiment with K-562 leukemia was greater than 100 µM each time. In addition, the TGI with LOX IMVI melanoma, in the experiment with M14 melanoma, with MCF7 breast, in the experiment on OVCAR-4 ovarian and with UACC-62 melanoma was greater than 100 µM throughout.
